Assays:
Rheb = Rheb (Homo sapiens (Human), UniProt Q15382); assay: Affinity Selection Mass Spectrometry (ASMS); format: binding; conditions: affinity (R3/R0) in Affinity Selection Mass Spectrometry assay
Procedure, shortened: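 Human Rheb (60 μM) with GDP (180 μM) and each compound at 2 μM, protein-plus versus protein-minus, incubated 30 min at room temperature, then washed by 10 kDa ultrafiltration. Retained ligand was released with MeCN and detected by UPLC-Q-TOF MS.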

[1] = target: HA-GST-Rheb (GTP-γ-S loaded) activating mTORC1 (Homo sapiens (Human), UniProt Q15382); assay: Rheb-dependent in vitro kinase assay (Rheb-IVK; LanthaScreen or Western readout); format: biochemical; conditions: Rheb-dependent in vitro kinase assay; read-out: IVK IC50
HA-GST-Rheb (GTP-γ-S loaded) activating mTORC1, sequence (Q15382 1-181): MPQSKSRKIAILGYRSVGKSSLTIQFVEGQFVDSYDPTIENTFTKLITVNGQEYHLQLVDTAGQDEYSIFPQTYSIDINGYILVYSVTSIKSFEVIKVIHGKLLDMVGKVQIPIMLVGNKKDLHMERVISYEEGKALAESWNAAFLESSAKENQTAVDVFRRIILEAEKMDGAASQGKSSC

Rheb, sequence (Q15382 1-169 limits assumed): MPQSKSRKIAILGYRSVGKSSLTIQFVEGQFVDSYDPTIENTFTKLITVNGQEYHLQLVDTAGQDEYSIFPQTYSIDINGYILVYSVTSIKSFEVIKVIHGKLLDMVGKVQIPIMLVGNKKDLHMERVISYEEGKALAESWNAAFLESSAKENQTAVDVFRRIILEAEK

| Compound | ASMS (R3/R0) (Rheb) | IC50 [1] |
| --- | --- | --- |
| OCc1nc2c(OC[C@H]3CCCC[C@@H]3O)c(Cl)c(Cl)cc2[nH]1 [I-439, 2-((5,6-dichloro-2-(hydroxymethyl)-1H-benzo[d]imidazol-4-yloxy)methyl)cyclohexanol] | C (an affinity (R3/R0)<20%) | 10 to 100 µM |
| OCc1nc2c(OCC3COCC3O)c(Cl)c(Cl)cc2[nH]1 (stereo not shown) [I-381] | C (an affinity (R3/R0)<20%) | > 100 µM |
| O=C(O)c1cc2c(Sc3cccc4cccnc34)cc(Cl)cc2[nH]1 [I-87, 6-chloro-4-(quinolin-8-ylthio)-1H-indole-2-carboxylic acid] | B (an affinity (R3/R0) between 100% and 20%) | 10 to 100 µM |
| Clc1cccc(Oc2cc(Cl)cc3[nH]ccc23)c1 [I-208, 6-chloro-4-(3-chlorophenoxy)-1H-indole] | B (an affinity (R3/R0) between 100% and 20%) | 10 to 100 µM |
| 7-chloro-6-(3,4-dichlorophenylthio)-4-fluoro-1H-indole-2-carboxylic acid [I-66] | B (an affinity (R3/R0) between 100% and 20%) | < 10 µM |
| CN1CCN(c2ccc(NC(=O)c3cc4c(Sc5ccc(Cl)cc5Cl)cc(Cl)cc4[nH]3)cc2C#N)CC1 [I-112, 6-chloro-N-(3-cyano-4-(4-methylpiperazin-1-yl)phenyl)-4-(2,4-dichlorophenylthio)-1H-indole-2-carboxamide] | C (an affinity (R3/R0)<20%) | < 10 µM |
| CN1CCN(c2ccc(NC(=O)c3cc4c(Sc5ccc(Cl)cc5Cl)cc(Cl)cc4[nH]3)cc2F)CC1 [I-113, 6-chloro-4-(2,4-dichlorophenylthio)-N-(3-fluoro-4-(4-methylpiperazin-1-yl)phenyl)-1H-indole-2-carboxamide] | C (an affinity (R3/R0)<20%) | < 10 µM |
| O=C(NCCN1CCN(c2ccccc2)CC1)c1cc2c(Sc3ccc(Cl)cc3Cl)cc(Cl)cc2[nH]1 [I-119] | B (an affinity (R3/R0) between 100% and 20%) | > 100 µM |
| O=C(O)c1cc2c(Oc3cccc4cnccc34)cc(Cl)cc2[nH]1 [I-41, 6-chloro-4-(isoquinolin-5-yloxy)-1H-indole-2-carboxylic acid] | C (an affinity (R3/R0)<20%) | 100 to 300 µM |
| O=C(O)Cn1c(-c2ccnc3[nH]ccc23)nc2c(Sc3ccc(Cl)cc3)c(Cl)ccc21 [I-322] | C (an affinity (R3/R0)<20%) | > 100 µM |
| CN1CCC(CCNC(=O)c2cc3c(Br)cc(Sc4ccc(Cl)c(Cl)c4)cc3n2Cc2ccc(C(=O)OC(C)(C)C)cc2)CC1 [I-110] | C (an affinity (R3/R0)<20%) | > 100 µM |
| CN1CCC(NC(=O)c2ccc(Cn3c(C(=O)O)cc4c(Br)cc(Oc5ccccc5)cc43)cc2)C1 (stereo not shown) [I-53] | B (an affinity (R3/R0) between 100% and 20%) | > 100 µM |
| O=C(O)c1cc2c(Sc3ccc(Cl)cc3Cl)cc(Cl)c(Cl)c2[nH]1 [I-45, 6,7-dichloro-4-(2,4-dichlorophenylthio)-1H-indole-2-carboxylic acid] | A (an affinity (R3/R0)>100%) | < 10 µM |
| OCc1cc2c(Oc3ccccc3)c(Cl)c(Cl)cc2[nH]1 [I-250, (5,6-Dichloro-4-phenoxy-1H-indol-2-yl)methanol] | B (an affinity (R3/R0) between 100% and 20%) | 10 to 100 µM |
| O=C(O)c1cc2c(Sc3ccc(Cl)cc3Cl)cc(Cl)cc2n1Cc1ccc(-c2ccncc2)cc1 [I-70, 6-chloro-4-(2,4-dichlorophenylthio)-1-(4-(pyridin-4-yl)benzyl)-1H-indole-2-carboxylic acid] | A (an affinity (R3/R0)>100%) | < 10 µM |
| O=C(NCC1CCOCC1)c1cc2c(Sc3ccc(Cl)cc3)cc(Cl)cc2[nH]1 [I-143] | B (an affinity (R3/R0) between 100% and 20%) | > 100 µM |
| OCc1nc2c(OCC3CCC(O)CC3)c(Cl)c(Cl)cc2[nH]1 (stereo not shown) [I-399, 4-((5,6-dichloro-2-(hydroxymethyl)-1H-benzo[d]imidazol-4-yloxy)methyl)cyclohexanol] | C (an affinity (R3/R0)<20%) | 10 to 100 µM |
| OCc1cc2c(Br)cc(OCc3ccccc3)cc2[nH]1 [I-241, (6-(Benzyloxy)-4-bromo-1H-indol-2-yl)methanol] | B (an affinity (R3/R0) between 100% and 20%) | 10 to 100 µM |
| CN1CCC[C@H]1CNC(=O)c1cc2c(Br)cc(Sc3ccc(Cl)c(Cl)c3)cc2[nH]1 [I-89] | A (an affinity (R3/R0)>100%) | > 100 µM |
| CN1CCCN(C(=O)c2cc3c(Sc4ccc(Cl)cc4)cc(Cl)cc3[nH]2)CC1 [I-83] | B (an affinity (R3/R0) between 100% and 20%) | > 100 µM |
| COc1ccc(COc2cc3nc(CO)[nH]c3c(Cl)c2Cl)cc1 [I-328] | B (an affinity (R3/R0) between 100% and 20%) | > 100 µM |
| Clc1ccc(Sc2cccc3[nH]ccc23)c(Cl)c1 [I-212] | B (an affinity (R3/R0) between 100% and 20%) | > 3 µM |

| Compound | ASMS (R3/R0) (Rheb) | IC50 [1] |
| --- | --- | --- |
| CN(C)C(=O)c1ccc(Cn2c(C(=O)O)cc3c(Br)cc(Sc4cccc(OC(F)(F)F)c4)cc32)cc1 [I-20, 4-bromo-1-(4-(dimethylcarbamoyl)benzyl)-6-(3-(trifluoromethoxy)phenylthio)-1H-indole-2-carboxylic acid] | A (an affinity (R3/R0)>100%) | < 10 µM |
| c1ccc(Oc2cccc3[nH]ccc23)cc1 [I-296, 4-phenoxy-1H-indole] | C (an affinity (R3/R0)<20%) | 100 to 300 µM |
| CN1CCC(NC(=O)c2cc3c(Sc4ccc(Cl)cc4Cl)cc(Cl)cc3[nH]2)CC1 [I-114] | B (an affinity (R3/R0) between 100% and 20%) | > 100 µM |
| Clc1ccc2[nH]ccc2c1Oc1ccccc1 [I-257, 5-chloro-4-phenoxy-1H-indole] | C (an affinity (R3/R0)<20%) | 10 to 100 µM |
| OCc1cc2c(Oc3ccc(C4CCCCC4)cc3)cc(Cl)cc2[nH]1 [I-127, (6-chloro-4-(4-cyclohexylphenoxy)-1H-indol-2-yl)methanol] | B (an affinity (R3/R0) between 100% and 20%) | < 10 µM |
| N[C@@H]1CCCC[C@@H]1COc1c(Cl)c(Cl)cc2[nH]c(CO)nc12 (racemic) [I-376, (4-(((+,−)-cis-2-aminocyclohexyl)methoxy)-5,6-dichloro-1H-benzo[d]imidazol-2-yl)methanol] | C (an affinity (R3/R0)<20%) | 100 to 300 µM |
| O=C(O)c1cc2c(Br)cc(Oc3ccccc3)cc2n1Cc1ccc(C(=O)N2CCNCC2)cc1 [I-61] | C (an affinity (R3/R0)<20%) | > 100 µM |
| CN1CCC(CCNC(=O)c2cc3c(-c4cc(Cl)cc(Cl)c4)cc(Cl)cc3[nH]2)CC1 [I-31] | A (an affinity (R3/R0)>100%) | > 100 µM |
| CN1CC(NC(=O)c2cc3c(-c4cc(Cl)cc(Cl)c4)cc(Cl)cc3[nH]2)C1 [I-26] | B (an affinity (R3/R0) between 100% and 20%) | > 100 µM |
| OCc1cc2c(Sc3ccc4ccccc4c3)cc(Cl)cc2[nH]1 [I-134, (6-chloro-4-(naphthalen-2-ylthio)-1H-indol-2-yl)methanol] | B (an affinity (R3/R0) between 100% and 20%) | 10 to 100 µM |
| OCc1cc2c(OCc3cccc(Cl)c3)cc(Cl)cc2[nH]1 [I-176, (6-chloro-4-(3-chlorobenzyloxy)-1H-indol-2-yl)methanol] | B (an affinity (R3/R0) between 100% and 20%) | 10 to 100 µM |
| OCc1nc2c(OC[C@H]3CCCC[C@@H]3O)c(Cl)c(Cl)cc2[nH]1 (single isomer, unassigned) [I-388] | B (an affinity (R3/R0) between 100% and 20%) | 10 to 100 µM |
| O=C(O)c1cc2c(-c3cc(Cl)cc(Cl)c3)cc(Cl)cc2[nH]1 [I-49, 6-chloro-4-(3,5-dichlorophenyl)-1H-indole-2-carboxylic acid] | B (an affinity (R3/R0) between 100% and 20%) | < 10 µM |
| OCc1cc2c(Br)cc(Sc3ccccc3)cc2[nH]1 [I-237, (4-bromo-6-(phenylthio)-1H-indol-2-yl)methanol] | B (an affinity (R3/R0) between 100% and 20%) | 10 to 100 µM |
| O=C(O)c1nc2cc(OCc3ccc(Cl)cc3)c(Cl)cc2[nH]1 [I-343, 6-chloro-5-(4-chlorobenzyloxy)-1H-benzo[d]imidazole-2-carboxylic acid] | A (an affinity (R3/R0)>100%) | 10 to 100 µM |
| Clc1cccc(Oc2cccc3[nH]ccc23)c1Cl [I-254, 4-(2,3-Dichlorophenoxy)-1H-indole] | B (an affinity (R3/R0) between 100% and 20%) | 10 to 100 µM |
| O=C(O)c1cc2c(Oc3cc(Cl)ccc3Cl)cc(Cl)cc2[nH]1 [I-172, 6-Chloro-4-(2,5-dichlorophenoxy)-1H-indole-2-carboxylic acid] | B (an affinity (R3/R0) between 100% and 20%) | 10 to 100 µM |
| Clc1cc2nc(-c3ccnc4[nH]ccc34)[nH]c2cc1Cl [I-359, 5,6-dichloro-2-(1H-pyrrolo[2,3-b]pyridin-4-yl)-1H-benzo[d]imidazole] | A (an affinity (R3/R0)>100%) | 10 to 100 µM |
| OCc1cc2c(Oc3cccc(Cl)c3)cccc2[nH]1 [I-275, (4-(3-chlorophenoxy)-1H-indol-2-yl)methanol] | C (an affinity (R3/R0)<20%) | 100 to 300 µM |
| Clc1ccc(Oc2cc(Cl)cc3[nH]ccc23)cc1 [I-204, 6-chloro-4-(4-chlorophenoxy)-1H-indole] | C (an affinity (R3/R0)<20%) | 10 to 100 µM |
| OCc1cc2c(Sc3cccc4cccnc34)cc(Cl)cc2[nH]1 [I-74, (6-chloro-4-(quinolin-8-ylthio)-1H-indol-2-yl)methanol] | B (an affinity (R3/R0) between 100% and 20%) | 10 to 100 µM |
| CC(C)NC(=O)c1ccc(Cn2c(C(=O)O)cc3c(Br)cc(Sc4ccc(Cl)c(Cl)c4)cc32)cc1 [I-101] | B (an affinity (R3/R0) between 100% and 20%) | > 100 µM |

Reference: patent US11339144B2 (Navitor Pharmaceuticals, Inc., priority 2017, dated 2022)
